The results in this text go back to patent publication US20220354852A1, “TARGETING WNT SIGNALING FOR IMPROVED GLIOMA IMMUNOTHERAPY” (CITY OF HOPE, priority 2021, published 2022).

For data set [1], the system named is subcutaneous K-luc tumors. As to the kind of experiment: IHC of immune cells in syngeneic subcutaneous K-luc glioma tumors. The data set is classed as in vivo, mice (C57BL/6). The conditions noted are these: 50 mg/kg/day by subcutaneous Alzet minipumps. As to the method: FIG. 22. IHC analysis of immune cells in syngeneic models of subcutaneous glioma (K-Luc). (A-D) Mice bearing subcutaneous K-luc glioma tumors were treated with ICG-001 (50 mg/kg/day) for 7, 14, or 21 days. At the end of treatment, tumor was excised and IHC stained for CD3 cells to evaluate recruitment and patterns of CD3 distribution (red). (E) Quantification of tumor coverage using ImageJ for mouse CD3, CD4, CD8, and CD31 positive cells on days 0-21. Scale bars are S.D. of duplicate sections (n=4).
Animal studies. Syngeneic mice (C57BL/6) of 8-12 weeks of age were implanted with subcutaneous K-Luc tumors (n=8). 7 days after, when tumors became palpable and after confirmation of the tumor presence with BLU imaging, mice were implanted with Alzet minipumps with ICG001 (50 mg/kg/day). Pumps were continuously providing a daily dose of ICG-001. […]
IHC was performed in COH pathology core. Tissues were scanned and quantification of CD4, CD8 and CD31 expression was done using ImageJ software.
Image analysis. Images were processed and analyzed in the ImageJ (Schneider et al. 2012, also see Schneider, C. A., Rasband, W. S., Image J, U. S. National Institutes of Health, Bethesda, Md., USA, https://imagej.nih.gov/ij/, 1997-2018). […] A watershed filter was then applied to this processed mask and the ‘Analyze Particles’ tool with a 4 pixel minimum size was employed to quantify the cells identified. […]

For data set [2], the system named is PBT017 and PBT106 derived lines that express high levels of the tumor antigen HER2. As to the kind of experiment: In vitro co-culture cytotoxicity assay, HER2-CAR T cells ± ICG-001. The data set is classed as cell-based, human. As to the method: FIG. 2. Combinational strategy of CAR T cell-mediated tumor-antigen targeting with ICG-001 induced differentiation in glioma. […] (B) Cytotoxicity of HER2 CAR-T cells and tumor cells (1:5 ratio) was enhanced by ICG-001 at concentrations 1.25-5 μM. (C) Treatment of PBT138 patient glioma tumors with CAR T IL13Rα2+/−ICG-001.
FIG. 11. (A, B) Growth kinetics of human PBT glioma lines (PBT017, PBT030, PBT135, PBT144, and PBT147) treated with ICG-001 (0-10 μM) for 7 days and (C) mouse glioma cells (GL261, GL261-IL13, and K-luc) treated with ICG-001 (0-10 μM) for 4 days. Red boxes indicate PBT030 and PBT147 cell lines used for Nanostring and proteomics analysis. Scale bars represent S.D. of triplicate samples. (D-F) Growth kinetics of PBT017 (2,500 cells/well) treated with or without HER2-CAR T cells (500 cells/well) and with or without ICG-001 (0-5 μM). The red line is CAR T cell treatment only and the bottom three lines are with ICG-001. Experiment was done in quadruplicate and error bars indicate S.D.
FIG. 13 illustrates data resulting from the combination of ICG001 and CAR T cells toxicity in vitro using 2000 cells to start and 4 days (96-well Endpoint—cell count) according to certain embodiments.
FIG. 14 illustrates data resulting from the Combination of ICG001 and CAR T cells toxicity in vitro using 1000 cells to start and 4 days (96-well Endpoint—cell count) according to certain embodiments.
It has also been observed that ICG-001-induced differentiation of PBT017 and PBT138 (data not shown).
Next, the efficacy of a titrated dose of CAR T cells±ICG-001 to induce tumor cell killing in vitro was tested (FIG. 11D-F). The combination of HER2-engineered CAR T (HER2-CAR T) cells and IGC-001 was evaluated using in vitro co-culture assays.

The nature of data set [3]: Orthotopic syngeneic murine hepatocellular carcinoma model (qRT-PCR, IHC). The data set is classed as in vivo. The settings on record: IHC, minimally 10 fields counted. An excerpt:
(§1) CXCL9 and CXCL10, are produced mainly by BATF3 dendritic cells that are required for Teff trafficking. The CXCL9, CXCL10, CXCL11/CXCR3 signaling axis is critical for activated T-helper type 1 (Th1), cytotoxic T-cell (CTL), and natural killer (NK) cell recruitment immune cell recruitment in vivo. A similar effect resulting from ICG-001 is likely, such as increased CD8^+T-cell infiltration into brain tumors (FIG. 3B).
(In general: In qPCR the cycle at which signal appears reflects the starting amount.)

For data set [4], the system named is interferon-y regulated chemokines CXCL9-11 in the TME. The data set is described as above. The data set is classed as in vivo. The conditions noted are these: qRT-PCR, previously demonstrated.
Text: as §1

Entries after “also recorded” stand apart in the source; their conditions may differ.

Consider `O=C1[C@H](Cc2ccc(O)cc2)N2C(=O)CCN(C(=O)NCc3ccccc3)[C@H]2CN1Cc1cccc2ccccc12` [ICG-001], for which, in data set [1] (by day 14), the “CD3+, CD8+, and CD4+ cells infiltrating the tumor” value was “increase in mouse host immune cells”. The “CD31 expression in tumor” value in data set [1] (days 7, 14, 21) is listed as “time-dependent increase”. The “cytotoxicity of HER2 CAR-T cells” value in data set [2] (CAR-T cells and tumor cells 1:5 ratio, ICG-001 1.25-5 μM) is reported as “enhanced”. The “tumor cell killing at given effector: target cell ratios” value in data set [2] (HER2-CAR T cells + ICG-001, effector: target cell ratios of 1:5 and 1:10) is “Enhanced killing”. Further, the “tumor cell killing, ICG-001 in combination with HER2-CAR T cells” value in data set [2] (PBT017 (and PBT106) lines, ICG-001 0-5 μM) is listed as “synergistic cytotoxicity; also recorded: synergistic killing”. For the same compound, in data set [2] (Tumor[PBT106.eGFP]: CAR T [Her2] cells in ratios (1:2; 1:2, 1:4)), the “killing by CAR T cells of ICG-001-treated tumor cells” value was “improved killing by CAR T cells”. Moreover, the “CD8+ T cell infiltration into the tumor microenvironment” value in data set [3] is given as “increased CD8+ T cell infiltration”. Besides, the “expression of interferon-y regulated chemokines CXCL9-11 in the TME” value in data set [4] is recorded as “significantly increased; also recorded: increased the expression”.
